“Also recorded” adds a separate entry of the source. Positions of bridges follow the written chain, without caps; N, C: chain ends. Non-standard residues stand in square brackets, D forms with d. Residues, ends and D or L forms follow the SMILES beside them. *: point of attachment. DOTA = O=C(O)CN1CCN(CC(=O)O)CCN(CC(=O)*)CCN(CC(=O)O)CC1; Mpa = O=C(O)CCS
How the values were obtained:
[1] = molecular target: T1, human OTR (Homo sapiens, UniProt P30559); assay: Heterologous competition binding, [3H]-OT displacement, membranes of transfected COS7 cells; settings: for Ki: displacement of [3H]-OT, mean±s.e. of three experiments
T1 construct: expressed in transfected cells; host or cells: COS7 (monkey kidney), transient electroporation
T1 sequence (P30559 1-389): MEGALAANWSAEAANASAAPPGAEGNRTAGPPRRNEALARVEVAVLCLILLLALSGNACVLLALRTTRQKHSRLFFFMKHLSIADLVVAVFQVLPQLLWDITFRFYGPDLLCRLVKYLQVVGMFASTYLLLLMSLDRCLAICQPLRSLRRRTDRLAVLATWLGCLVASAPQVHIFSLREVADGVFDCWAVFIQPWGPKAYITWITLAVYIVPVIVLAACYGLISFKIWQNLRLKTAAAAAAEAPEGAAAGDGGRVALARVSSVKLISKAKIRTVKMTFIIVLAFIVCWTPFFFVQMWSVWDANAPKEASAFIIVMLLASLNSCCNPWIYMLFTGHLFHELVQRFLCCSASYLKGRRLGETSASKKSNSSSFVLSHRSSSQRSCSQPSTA
Method: (§1) To determine the LVT, dLVT and DOTA-dLVT affinity constants in comparison with OT, heterologous competition experiments were performed on membranes prepared from monkey kidney COS7 cells transiently transfected by means of electroporation with human OTR, V1a, V2 and V1b cDNAs as previously described ([Chini et al, 1995a]). Briefly, the transfected cells were homogenised with a Dounce glass apparatus, washed twice, and resuspended in binding buffer (50 mM Tris HCl, 5 mM MgCl, pH 7.4). Between 5 and 10 μg of membrane proteins were incubated with a fixed concentration of [^3H]OT (1–2 nM) for 30 min at 30°C in the presence of increasing concentrations of unlabelled peptides. Nonspecific binding was determined in the presence of 1 μM OT. Bound and free radioactivity were separated by filtration over Whatman GF/C filters presoaked in 10 mg ml^−1 BSA. The binding isotherms were analysed using GraphPad Prism.
LVT, dLVT and DOTA-dLVT affinities for the human OTR were determined by means of heterologous competition experiments on membranes prepared from transiently transfected COS7 cells using [^3H]-OT as radioligand.
Figure 3 Binding of LVT-derived peptides to human OT/AVP receptor subtypes. (A) Comparison of OT and DOTA-dLVT affinity for the human OTR. […] [^3H]-OT was used at a concentration of 1–2 nM, and nonspecific binding was determined in the presence of […] OT. Data are expressed as the percentage of bound [^3H]-OT in the absence of cold competitor. […] The affinity of [^111In]-DOTA-dLVT for the human OTR was measured by incubating increasing amounts of labelled peptide to membrane preparations of COS7 cells transiently transfected with the wild-type OTR. […] The membrane preparations of OTR-expressing cells were incubated in the presence of a constant amount of ^3[H]OT (1–2 nM), and nonspecific binding was determined in the presence of 100 μM OT. The membrane preparations of cells expressing V1a, V1b and V2 receptors were incubated in the presence of a constant amount of ^3[H]AVP (2–4 nM), and nonspecific binding was determined in the presence of 100 μM AVP. […]

[2] = molecular target: T2, human V1b receptor (Homo sapiens, UniProt P47901); assay: Competition binding, [3H]-AVP displacement, membranes of transfected COS7 cells; settings: for Ki: displacement of [3H]-AVP, mean±s.e. of three experiments
T2 construct: expressed in transfected cells; host or cells: COS7 (monkey kidney), transient electroporation
T2 sequence (P47901 1-424): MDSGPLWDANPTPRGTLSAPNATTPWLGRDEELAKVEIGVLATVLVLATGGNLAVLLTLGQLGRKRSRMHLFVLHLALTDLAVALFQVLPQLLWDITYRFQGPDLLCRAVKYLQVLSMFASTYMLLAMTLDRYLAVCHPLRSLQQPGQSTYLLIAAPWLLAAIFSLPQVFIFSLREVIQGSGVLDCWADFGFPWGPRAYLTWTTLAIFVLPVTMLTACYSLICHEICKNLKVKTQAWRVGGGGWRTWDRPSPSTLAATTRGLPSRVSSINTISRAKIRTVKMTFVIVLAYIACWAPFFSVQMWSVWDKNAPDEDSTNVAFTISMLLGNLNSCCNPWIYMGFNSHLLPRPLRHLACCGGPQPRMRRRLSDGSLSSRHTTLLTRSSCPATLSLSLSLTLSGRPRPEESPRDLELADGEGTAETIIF
Method: as §1
(§2) Figure 3 Binding of LVT-derived peptides to human OT/AVP receptor subtypes. (A) Comparison of OT and DOTA-dLVT affinity for the human OTR. Competition experiments were performed using membrane preparations of COS7 cells transiently transfected with the wild-type OTR. [^3H]-OT was used at a concentration of 1–2 nM, and nonspecific binding was determined in the presence of […] OT. Data are expressed as the percentage of bound [^3H]-OT in the absence of cold competitor. The curves are representative of three independent assays performed in triplicate. (B) [^111In]-DOTA-dLVT saturation binding assay. The affinity of [^111In]-DOTA-dLVT for the human OTR was measured by incubating increasing amounts of labelled peptide to membrane preparations of COS7 cells transiently transfected with the wild-type OTR. The curve is representative of two independent assays performed in triplicate. (C) Receptor selectivity profile of DOTA-dLVT. Competition experiments were performed using membrane preparations of COS7 cells transiently transfected with the wild-type human OTR, and V1a, V1b and V2 receptors. The membrane preparations of OTR-expressing cells were incubated in the presence of a constant amount of ^3[H]OT (1–2 nM), and nonspecific binding was determined in the presence of 100 μM OT. The membrane preparations of cells expressing V1a, V1b and V2 receptors were incubated in the presence of a constant amount of ^3[H]AVP (2–4 nM), and nonspecific binding was determined in the presence of 100 μM AVP. The data are expressed as percentages of bound [^3H]-ligand in the absence of cold competitor. Each curve is the mean of triplicate determinations of a single representative experiment.

[3] = molecular target: T3, human V2 receptor (Homo sapiens, UniProt P30518); assay: as above; settings: for Ki: displacement of [3H]-AVP, mean±s.e. of three experiments
T3 construct: expressed in transfected cells; host or cells: COS7 (monkey kidney), transient electroporation
Method: as §1, §2

[4] = molecular target: T4, human V1a receptor (Homo sapiens, UniProt P37288); assay: as above; settings: for Ki: displacement of [3H]-AVP, mean±s.e. of three experiments
T4 construct: expressed in transfected cells; host or cells: COS7 (monkey kidney), transient electroporation
Method: as §1, §2

[5] = molecular target: T5, human OTR fused to EGFP (Homo sapiens, UniProt P30559); assay: Peptide-induced receptor internalisation, confocal microscopy, HEK293 cells; type: cell-based; settings: peptide 10^−6 M; for receptor internalisation (result in words): up to 60 min
T5 construct: expressed in transfected cells; host or cells: HEK293, stably transfected
T5 sequence (P30559 1-389): T1 sequence (P30559 1-389)
Method: HEK293 cells stably transfected with the human OTR fused to EGFP were grown in six-well dishes, washed twice in serum-free medium, and left to equilibrate for 30 min at 37°C. Peptides were then added at a final concentration of 10^−6 M. At fixed time intervals (5, 15, 30 and 60 min), the cells were washed twice with 10 mM sodium phosphate buffer, pH 7.4, containing 150 mM NaCl (LS buffer), fixed for 20 min at room temperature with 4% (w v^−1) paraformaldehyde, and mounted on glass slides with 90% (v v^−1) glycerol in PBS. The slides were observed under an MRC1024 BioRad confocal microscope.
To assess whether LVT, dLVT and DOTA-dLVT behave like OT to induce receptor internalisation, we applied them to HEK293 cells stably expressing a human OTR C-terminally tagged with the green fluorescent protein EGFP ([Guzzi et al, 2002]; [Rimoldi et al, 2003]).
Figure 4 Laser-scanning confocal microscopy analysis of peptide-induced receptor internalisation. Receptor internalisation was investigated in HEK293 cells stably transfected with the human OTR bearing the EGFP fused at its C-terminus. The cells were grown on coverslips and incubated in serum-free medium for 30 min (Bas), after which the peptides were added at a final concentration of 10^−6 M and the coverslips were fixed at 1, 5, 15, 30 and 60 min.

[6] = system: OTR-positive cells (MCF7, TS/A, MOG-U-V-W); assay: Displacement of [111In]-DOTA-dLVT binding from intact tumour cells by cold peptides; type: cell-based; settings: 5 min preincubation with 100 μM and 1 mM nonradioactive peptide
Method: Binding specificity was determined by evaluating radioactive displacement. Briefly, the cell suspension was incubated for 5 min in the presence of LVT, dLVT or OT 100 μM and 1 mM, or in the presence of unrelated peptides (somatostatin 100 nM and 1 μM, and hexarelin 1 μM) followed by 20 min of incubation with 1 μM [^111In]-DOTA-dLVT. The cells were then centrifuged and washed twice as described above. The activity of the two different agonists and the unrelated peptides in competing with the radioligand was evaluated by measuring cell-bound radioactivity. All of the experiments were performed in triplicate. The statistical analysis was carried out using ANOVA, with a significance cutoff point of 0.05.

[7] = molecular target: T1, human OTR; assay: [111In]-DOTA-dLVT saturation binding assay, membranes of transfected COS7 cells
Method: as §2, with “(C) Receptor selectivity profile of DOTA-dLVT. Competition experiments were performed using membrane preparations of COS7 cells transiently transfected with the wild-type human OTR, and V1a, V1b and V2 receptors.” left out, “Each curve is the mean of triplicate determinations of a single representative experiment.” left out

[8] = system: OTR+ TS/A tumours; assay: in vivo; design: species or system Balb/c mice; settings: mouse; for tissue to tissue ratio at 5 h: female, Balb/c, iv, 74 kBq, total radioactivity
Method: To determine the amount and specificity of the receptor-mediated uptake of [^111In]-DOTA-dLVT in tumours, we used an experimental model of OTR+ TS/A tumours growing in Balb/c mice. A total of 10 female Balb/c mice weighing 25 g were subcutaneously injected with TS/A mammary carcinoma (0.3 × 10^6 in 0.2 ml of medium). After 20 days, when the growing tumour had reached about 2 cm in diameter, five mice were intravenously administered 50 μg of cold OT 30 min before the radiotracer and the other five were not. Mice were injected in the tail vein with [^111In]-DOTA-dLVT (average activity: 74 kBq) and killed 5 h later. The organs were collected, washed, weighed and their radioactivity was measured in a gamma-ray detector with well-counter geometry ([…], Milan, Italy) together with standards of the injection mixture. Activity was expressed as the percentage of the injected dose (%ID) g^-1 of tissue, and the uptake ratios of tumour, blood, kidney and liver were calculated. [table]

T4 sequence (P37288 whole entry): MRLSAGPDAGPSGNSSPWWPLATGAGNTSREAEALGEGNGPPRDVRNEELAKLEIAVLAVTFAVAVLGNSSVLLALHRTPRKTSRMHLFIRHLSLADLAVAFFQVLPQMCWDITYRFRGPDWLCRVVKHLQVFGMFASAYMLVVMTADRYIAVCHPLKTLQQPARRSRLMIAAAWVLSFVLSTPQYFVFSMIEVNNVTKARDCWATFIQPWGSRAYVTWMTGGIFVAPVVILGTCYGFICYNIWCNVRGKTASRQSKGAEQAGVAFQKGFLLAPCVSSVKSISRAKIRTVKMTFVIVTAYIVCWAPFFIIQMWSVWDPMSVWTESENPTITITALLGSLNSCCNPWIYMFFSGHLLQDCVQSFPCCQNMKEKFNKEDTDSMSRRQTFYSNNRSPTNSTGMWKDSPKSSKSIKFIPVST
T3 sequence (P30518 whole entry): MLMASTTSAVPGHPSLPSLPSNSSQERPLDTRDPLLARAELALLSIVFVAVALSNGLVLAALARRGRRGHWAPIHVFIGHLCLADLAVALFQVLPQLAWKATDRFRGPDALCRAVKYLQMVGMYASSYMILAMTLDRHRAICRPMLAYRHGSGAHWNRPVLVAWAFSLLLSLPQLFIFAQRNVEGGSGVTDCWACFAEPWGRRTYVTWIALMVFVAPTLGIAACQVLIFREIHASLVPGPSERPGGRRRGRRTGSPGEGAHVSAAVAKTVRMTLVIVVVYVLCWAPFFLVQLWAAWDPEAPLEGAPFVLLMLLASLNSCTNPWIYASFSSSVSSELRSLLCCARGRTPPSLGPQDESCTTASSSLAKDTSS

| Compound | Ki [1] [µM] | lower affinity at V1b receptor relative to human OTR [2] [fold] | Ki [2] [µM] | Ki [3] [µM] | lower affinity at V1a receptor relative to human OTR [4] [fold] | Ki [4] [µM] | time after application at which punctate fluorescence (endocytotic vesicles) is seen [5] [min] | receptor internalisation (result in words) [5] | specific [111In]-DOTA-dLVT binding displaced [6] | also measured |
| --- | --- | --- | --- | --- | --- | --- | --- | --- | --- | --- |
| CC[C@H](C)[C@@H]1NC(=O)[C@H](Cc2ccc(O)cc2)NC(=O)CCSSC[C@@H](C(=O)N2CCC[C@H]2C(=O)N[C@@H](CCCCNC(=O)CN2CCN(CC(=O)O)CCN(CC(=O)O)CCN(CC(=O)O)CC2)C(=O)NCC(N)=O)NC(=O)[C@H](CC(N)=O)NC(=O)[C@H](CCC(N)=O)NC1=O [DOTA-dLVT] ([Mpa]YIQNCPK(DOTA)G-NH2; disulfide 1-6) | 0.00121 ± 0.000199 | ≥ 300 | 0.64 ± 0.177 | 3.56 ± 0.28 | ≥ 300 | 0.37 ± 0.058 | 5 | capable of inducing a persistent internalisation; also recorded: rapid and persistent receptor internalisation |  | enhancement of affinity for the hOTR by addition of DOTA group at position 8 of dLVT ([1]; compared to dLVT (to both OT and dLVT)): 2–3 fold; decrease in binding affinity at V2 receptor relative to human OTR [3]: ≥ 300 fold |
| CC[C@H](C)[C@@H]1NC(=O)[C@H](Cc2ccc(O)cc2)NC(=O)[C@@H](N)CSSC[C@@H](C(=O)N2CCC[C@H]2C(=O)N[C@@H](CCCCN)C(=O)NCC(N)=O)NC(=O)[C@H](CC(N)=O)NC(=O)[C@H](CCC(N)=O)NC1=O [LVT, [Lys8]-vasotocin, reference compound] (HELM PEPTIDE1{C.Y.I.Q.N.C.P.K.G.[am]}$PEPTIDE1,PEPTIDE1,1:R3-6:R3$$$V2.0; C-terminus assumed; bridges inferred) |  | 10 |  |  | 10 |  | 5 | rapid and persistent receptor internalisation | more than 92% | concentrations at which V2 receptor binds the peptide ([3]; in words): only at micromolar concentrations |
| CC[C@H](C)[C@@H]1NC(=O)[C@H](Cc2ccc(O)cc2)NC(=O)CCSSC[C@@H](C(=O)N2CCC[C@H]2C(=O)N[C@@H](CCCCNC(=O)CN2CCN(CC(=O)O)CCN(CC(=O)O)CCN(CC(=O)O)CC2)C(=O)NCC(N)=O)NC(=O)[C@H](CC(N)=O)NC(=O)[C@H](CCC(N)=O)NC1=O [[^111In]-DOTA-dLVT, metal not drawn] ([Mpa]YIQNCPK(DOTA)G-NH2; disulfide 1-6) |  |  |  |  |  |  |  |  |  | Kd [7]: 0.0045 µM; tissue to tissue ratio at 5 h ([8]; Tumour/kidney ratio): 0.06; tissue to tissue ratio at 5 h ([8]; Tumour/liver ratio): 1.42; Tumour/blood ratio [8]: 7.58; decrease in uptake when TS/A tumours were blocked with 50 μg of cold OT [8]: three-fold decrease |
| CC[C@H](C)[C@@H]1NC(=O)[C@H](Cc2ccc(O)cc2)NC(=O)CCSSC[C@@H](C(=O)N2CCC[C@H]2C(=O)N[C@@H](CCCCN)C(=O)NCC(N)=O)NC(=O)[C@H](CC(N)=O)NC(=O)[C@H](CCC(N)=O)NC1=O [dLVT, reference compound] (HELM PEPTIDE1{[O=C(CCS[*:3])[*:2]].Y.I.Q.N.C.P.K.G.[am]}$PEPTIDE1,PEPTIDE1,1:R3-6:R3$$$V2.0) | 0.00388 ± 0.000585 |  | 0.0717 ± 0.002 | 3.74 ± 0.4 |  | 0.0355 ± 0.0062 |  |  |  |  |
| oxytocin [OT] |  |  |  |  |  |  |  |  | more than 92% |  |

Source: PMC2394487, “Improved radiotracing of oxytocin receptor-expressing tumours using the new [^111In]-DOTA-Lys^8-deamino-vasotocin analogue” (British Journal of Cancer, 2003)
